The text below walks through data of patent US20200087248A1, “Fluoroallylamine Derivative And Use Thereof” (SICHUAN KELUN-BIOTECH BIOPHARMACEUTICAL CO., LTD., priority 2017, published 2020).

Data set [1] concerns the target T1, VAP-1 in abdominal fat of mice (Mus musculus, UniProt O70423).
T1 construct: abdominal fat was collected and homogenized; from tissue; host or cells: abdominal fat of BALBc mice (homogenate supernatant)
T1 sequence (O70423 1-765): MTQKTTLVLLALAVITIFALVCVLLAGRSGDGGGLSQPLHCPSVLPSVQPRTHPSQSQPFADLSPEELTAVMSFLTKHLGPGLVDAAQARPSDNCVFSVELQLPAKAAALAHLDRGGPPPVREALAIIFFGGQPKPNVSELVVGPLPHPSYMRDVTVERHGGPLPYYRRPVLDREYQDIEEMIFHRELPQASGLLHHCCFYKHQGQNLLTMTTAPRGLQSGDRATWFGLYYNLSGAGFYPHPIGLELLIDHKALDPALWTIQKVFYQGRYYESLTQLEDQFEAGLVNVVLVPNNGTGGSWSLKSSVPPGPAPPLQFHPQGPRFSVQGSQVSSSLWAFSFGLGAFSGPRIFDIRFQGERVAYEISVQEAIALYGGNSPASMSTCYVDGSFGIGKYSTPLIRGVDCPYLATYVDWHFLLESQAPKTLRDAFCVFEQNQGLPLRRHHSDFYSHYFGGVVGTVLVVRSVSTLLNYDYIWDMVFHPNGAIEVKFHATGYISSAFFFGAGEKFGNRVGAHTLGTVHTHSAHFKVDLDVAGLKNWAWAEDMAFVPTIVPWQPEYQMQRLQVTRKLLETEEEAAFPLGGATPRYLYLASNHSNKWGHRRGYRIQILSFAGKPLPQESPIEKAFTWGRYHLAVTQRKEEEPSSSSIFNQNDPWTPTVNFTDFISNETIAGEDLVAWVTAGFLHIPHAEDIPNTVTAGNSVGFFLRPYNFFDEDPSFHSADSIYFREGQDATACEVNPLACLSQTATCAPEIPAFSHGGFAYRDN
The data set is described as follows: Inhibition of the enzymatic activity of VAP-1 ex-vivo, abdominal fat after oral dosing. It is filed as in vivo, BALBc mice. The conditions noted are these: 0.5 mg/kg oral, abdominal fat collected after six hours; for inhibition at 0.5 mg/kg: mouse, read-out: Inhibition rate (%) against the enzymatic activity of VAP-1 (ex-vivo). On the procedure: Inhibition Experiment Against the Enzymatic Activity (ex-vivo)
Tissue homogenate buffer solution (20 mM HEPES, pH 7.2, 1 mM EDTA, 250 mM sucrose, PMSF 0.2 mM)
Reaction buffer solution: 50 mM PBS, pH 7.4
Test kit: Amplex® Red Monoamine Oxidase Assay, Manufacturer: ThermoFisher
BALBc mice were administrated orally with different doses of the test compound, and the vehicle group was used as the control group. After six hours, abdominal fat was collected and homogenized at 1:20 (w/v) with the pre-cooled homogenate buffer solution, and thereafter, the homogenate was centrifuged at 10,000 g and 4° C. or 10 minutes, the supernatant was collected and stored at -80° C. for further use.
A test sample was diluted with the reaction buffer solution and successively added with the inhibition solution A: 1 μM Clorgyline+1 μM pargylin, to inhibit the activities of MAO-A and MAO-B, and the inhibition solution B: 1 μM Clorgyline+1 μM Pargylin+1 μM Mofegiline as the blank control, and after being incubated at room temperature for 20 min, 500 μM benzylamine hydrochloride, 1 U/mL HRP and 200 μM Amplex Red reagent were added to start the reaction. By referring to the method in “Experiment of inhibiting the enzymatic activity of VAP-1”, relative activity of each dose group was calculated, wherein the ratio of the fluorescent signal to reaction time in the linear range is the reaction rate, and the vehicle group is the positive control, thereby to study the inhibition of the compound against the enzymatic activity of VAP-1 in abdominal fat of mice.

In data set [2] the target is T2, CYP1A2 (Homo sapiens, UniProt P05177).
T2 construct: purchased Promega
T2 sequence (P05177 1-516): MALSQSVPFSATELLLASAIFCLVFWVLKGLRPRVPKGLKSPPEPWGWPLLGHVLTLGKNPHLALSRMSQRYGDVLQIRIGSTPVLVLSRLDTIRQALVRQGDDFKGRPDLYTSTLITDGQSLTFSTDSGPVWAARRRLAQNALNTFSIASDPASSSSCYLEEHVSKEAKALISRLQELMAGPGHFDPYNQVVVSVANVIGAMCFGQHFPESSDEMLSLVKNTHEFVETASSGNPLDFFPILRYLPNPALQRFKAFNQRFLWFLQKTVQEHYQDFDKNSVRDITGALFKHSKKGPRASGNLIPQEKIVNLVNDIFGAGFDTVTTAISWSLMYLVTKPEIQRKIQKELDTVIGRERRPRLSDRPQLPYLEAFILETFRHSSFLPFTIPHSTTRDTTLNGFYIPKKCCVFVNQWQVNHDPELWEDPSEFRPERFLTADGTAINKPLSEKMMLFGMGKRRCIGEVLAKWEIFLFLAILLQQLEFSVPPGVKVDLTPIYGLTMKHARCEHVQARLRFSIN
The data set is described as follows: Inhibition of cytochrome P450 isoenzyme CYP1A2 (P450-Glo). Particulars: estimated from inhibition rates at 10 μM and 1 μM. It is filed as in vitro ADME. On the procedure:
(§1) Inhibition Experiment Against Cytochrome P450 Isoenzyme (CYP)
P450-Glo™ CYP1A2 Screening System, manufacturer: Promega
(§2) According to the specification of the test kit, 10 nM CYP1A2, 5 nMCYP2D6, and 1 nM CYP3A4 proteins and corresponding substrates (100 μM, 30 μM, 3 μM) as well as the compound were pre-incubating respectively for 10 min, G6PDH-G6P-NADP regeneration system was added to start the reaction, a test reagent was added later, after 20 min, the chemical luminescent signals were detectted.
(§3) Percent inhibition rate (%)=(1-(signal of each compound concentration group-signal of the blank group)/(signal of the negative control-signal of the blank group))*100.
(§4) According to the inhibition rates of the compound at different concentrations against P450 enzyme, the half inhibition concentration (IC5o) or range was estimated.
(§5) IC50=X*(1-percent inhibition rate (%))/percent inhibition rate (%), wherein, X is the test concentration of the compound.
(§6) According to the above method, the inhibition of the compound at the concentrations 10 μM, and 1 μM, against three CYPs were measured, and the results were shown in the following Tables 10-12: […]

Data set [3] addresses T3, CYP2D6 (Homo sapiens, UniProt P10635).
T3 construct: purchased Promega
The data set is described as follows: Inhibition of cytochrome P450 isoenzyme CYP2D6 (P450-Glo). Particulars: estimated from inhibition rates at 10 μM and 1 μM; for IC50: read-out: IC50, inhibition against CYP2D6. It is filed as in vitro ADME. On the procedure:
as §1
P450-Glo™ CYP2D6 Screening System, manufacturer: Promega
as §2, §3, §4, §5, §6

Data set [4] deals with T4, CYP3A4 (Homo sapiens, UniProt P08684).
T4 construct: purchased Promega
T4 sequence (P08684 whole entry): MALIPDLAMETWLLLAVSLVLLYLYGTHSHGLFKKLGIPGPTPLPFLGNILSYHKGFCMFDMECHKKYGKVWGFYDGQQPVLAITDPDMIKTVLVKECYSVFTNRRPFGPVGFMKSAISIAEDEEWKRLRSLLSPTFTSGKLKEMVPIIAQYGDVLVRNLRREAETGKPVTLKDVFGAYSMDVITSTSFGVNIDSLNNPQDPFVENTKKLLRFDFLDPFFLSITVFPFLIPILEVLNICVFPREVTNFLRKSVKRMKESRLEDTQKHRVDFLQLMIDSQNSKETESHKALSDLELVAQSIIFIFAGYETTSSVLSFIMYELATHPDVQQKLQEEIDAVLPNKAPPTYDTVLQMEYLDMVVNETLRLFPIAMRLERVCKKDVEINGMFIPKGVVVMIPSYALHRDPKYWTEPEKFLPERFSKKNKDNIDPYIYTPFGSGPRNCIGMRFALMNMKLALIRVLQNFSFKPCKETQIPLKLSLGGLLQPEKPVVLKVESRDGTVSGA
The data set can be described thus: Inhibition of cytochrome P450 isoenzyme CYP3A4 (P450-Glo). The data set is classed as in vitro ADME. Particulars: estimated from inhibition rates at 10 μM and 1 μM; for IC50: read-out: IC50, inhibition against CYP3A4. On the procedure:
as §1
P450-Glo™ CYP3A4 Screening System, manufacturer: Promega
as §2, §3, §4, §5, §6

Counter-ions that a name gives are not always drawn.

T3 sequence (P10635 whole entry): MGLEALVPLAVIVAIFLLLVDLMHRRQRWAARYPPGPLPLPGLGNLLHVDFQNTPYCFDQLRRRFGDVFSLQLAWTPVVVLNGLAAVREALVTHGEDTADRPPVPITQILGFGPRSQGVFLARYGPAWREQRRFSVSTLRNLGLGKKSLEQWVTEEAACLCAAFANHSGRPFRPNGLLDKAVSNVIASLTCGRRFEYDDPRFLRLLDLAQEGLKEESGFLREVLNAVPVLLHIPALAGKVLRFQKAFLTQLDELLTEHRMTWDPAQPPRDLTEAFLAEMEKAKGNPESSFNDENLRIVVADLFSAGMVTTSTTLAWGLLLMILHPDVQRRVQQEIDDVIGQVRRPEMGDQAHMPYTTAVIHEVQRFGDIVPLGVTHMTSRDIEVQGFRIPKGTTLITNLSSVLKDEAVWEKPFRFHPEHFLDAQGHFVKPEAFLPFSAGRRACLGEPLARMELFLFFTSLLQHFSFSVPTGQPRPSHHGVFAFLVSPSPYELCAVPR

Usually inhibition stands for the drop in the measured response relative to a control, in per cent. As to `NC/C(=C\F)COc1ccc(C(=O)Nc2ccccc2)cc1` [TM1-E, (E)-N-phenyl-4-((2-aminomethyl-3-fluoroallyl)oxy)-benzamide trifluoroacetate], in data set [1], the inhibition at 0.5 mg/kg came out at 96.7 ± 2.2%.

On to `NC/C(=C/F)COc1ccc2c(c1)CCNC2=O` [TM26-Z, (Z)-6-((2-aminomethyl-3-fluoroallyl)oxy)-3,4-dihydroisoquinolin-1(2H)-one trifluoroacetate], for which the inhibition at 0.5 mg/kg in data set [1] was determined as 86.6 ± 5.5%.

Turning to `NC/C(=C\F)COc1ccc(-c2ncccn2)cc1` [TM39-E, (E)-2-(4-(2-pyrimidyl)phenoxymethyl)-3-fluoroallylamine trifluoroacetate], the inhibition at 0.5 mg/kg in data set [1] turned out to be 93 ± 2.7%.

Usually IC50 stands for the concentration that inhibits the measured activity by half. On to “(E)-6-((2-(methylamino)-3-fluoroallyl)oxy)-2-methyl-3,4-dihydroisoquinolin-1(2H)-one trifluoroacetate [TM66-E]”, for which the “Inhibition rate (%) against the enzymatic activity of VAP-1 (ex-vivo)” value in data set [1] is listed as 92.3 ± 1.9%. Further, in data set [2], the “IC50, inhibition against CYP1A2” value is “do not have significant inhibitions”. For the same compound, in data set [3], the “IC50, inhibition against CYP2D6” value is listed as “do not have significant inhibitions” and the IC50 is above 10 µM. Further, in data set [4], the “IC50, inhibition against CYP3A4” value is reported as “do not have significant inhibitions” and the IC50 is above 10 µM.

As for “(E)-6-((2-(methylamino)-3-fluoroallyl)oxy)-3,3-dimethyl-3,4-dihydro-isoquinolin-1(2H)-one trifluoroacetate [TM38-E]”, the “Inhibition rate (%) against the enzymatic activity of VAP-1 (ex-vivo)” value in data set [1] is given as 92.7 ± 3.0%. Moreover, the “IC50, inhibition against CYP1A2” value in data set [2] was “do not have significant inhibitions”. Besides, in data set [2] (read-out: IC50, inhibition against CYP1A2), the IC50 was 6.73 ± 0.39 µM. Also, in data set [3], the “IC50, inhibition against CYP2D6” value is given as “do not have significant inhibitions” and the IC50 was above 10 µM. Also, in data set [4], the “IC50, inhibition against CYP3A4” value is reported as “do not have significant inhibitions” and the concentration for half-maximal inhibition (IC50) is above 10 µM.
